Data published in patent publication US5942494A, “Stimulation of gene expression and synthesis of heat shock protein 72/73 (HSP 70)” (The Trustees of Columbia University in the City of New York, priority 1996, dated 1999).
Square brackets hold non-standard residues; d marks the D form. Peptide text beside a SMILES is read from it. Nle = CCCC[C@H](N)C(=O)O

Test system: HSF1
Assay: EGS cross-linking and Western blot of HSF1 oligomeric forms in HepG2 cells
Format: cell-based, human
Conditions: ALLN 40 μg/ml, 2 hours at 37° C., EGS cross-linking
Description: FIGS. 6A-6B: ALLN affects the trimerization of HSF. HepG2 cells were treated with serum-free MEM containing 1.5% BSA for 2 hours at 37° C. without any additions (lane1), at 37 ° C. but containing 40μg/ml of ALLN in the medium (lane2), at 37° C. in a medium containing both ALLN and 50 μg/ml of cycloheximide (lane3) , at 42° C. alone (lane4), or at 42° C. plus cycloheximide in the medium (lane5). Cell lysates were prepared as described under Experimental Details. The lysates were either directly run on the SDS-PAGE (A) to show the steady-state protein levels of HSF1 or subjected to cross-linking with ethylene glycol bis sucrinimidylsuccinate (EGS) before running the gel (B) to show the oligomeric forms of HSF1. The proteins were then transfered to a nitrocellulose membrane and immunoblotted with anti-human HSF1 antibody. Arrows on the right side indicates the monomeric, dimeric or trimeric forms of HSF1, respectively. This experiment was repeated three times with identical results.
For measurement of the steady-state HSF1 protein levels, whole cell extracts were prepared by lysing the cells directly with 2×SDS-sample buffer (Maniatis, et al., 1982). For chemical cross-linking experiments, whole-cell extracts were prepared as described (Mosser, et al., 1988). Briefly, the cold PBS-washed cell pellets were quickly and repeatedly frozen in liquid nitrogen. […]

## CCCC[C@@H](C=O)NC(=O)[C@H](CC(C)C)NC(=O)[C@H](CC(C)C)NC(C)=O [ALLN, N-acetyl-leucyl-leucyl-norleucinal] (Ac-Leu-Leu-[Nle]-aldehyde)
  Oligomeric form of HSF1 (270-kDa cross-linked product): trimer
